Consider 16 molecules from US12145931B2, “Substituted pyrrolo[2,3-c]quinolines as antimalarials” (COUNCIL OF SCIENTIFIC AND INDUSTRIAL RESEARCH, priority 2018, dated 2024).

For series [1], the system named is Plasmodium falciparum 3D7 strain. As to the kind of experiment: Anti-malarial screen, parasite growth by SybrGreen staining. The series is classed as cell-based. As to conditions: 60 hours incubation, triplicates; for inhibition at 10 µM / EC50: Plasmodium falciparum, 3D7; for EC50: serial dilution from 10 μM to 1 nM. On the procedure:
Plasmodium falciparum 3D7 strain from Malaria Research and Reference Reagent Resource Center (ID NO: MRA-102). Plasmodium falciparum (3D7) is cultured in the laboratory as per standard protocols [AzarRadfar, Darío Méndez, Carlos Moneriz, María Linares, Patricia Marín-García, Antonio Puyet, AmaliaDiez & José M Bautista. Synchronous culture of Plasmodium falciparum at high parasitemia levels Nature Protocols 2009, 4, 1899-1915]. When the parasitemia (i.e., percent infection of human RBCs) reaches >15%, 1 mL of culture suspension is layered over 10 mL of 60% percoll (pH and osmolality adjusted using PBS) and centrifuged at 3000 rpm for 5 min using a swing out rotor. This separates late stage parasite (trophozoite and schizont) infected RBC (as a band on top of the percoll cushion) from early stage parasite (ring) infected and uninfected RBCs (as pellet at the bottom of the percoll cushion). The >90% enriched late stage parasite infected RBCs are collected, washed with complete RPMI media and added to a 2% hematocrit RBC suspension such that the final parasitemia is around 2%. The parasites grow in a synchronous manner for at least 2 rounds of asexual cycle (48 hours). This culture is then used for anti-malarial screening as given below.
200 μL of ring stage parasite culture at ˜2% parasitemia (see above) is added to each well in a 96 well plate pre-seeded with the compound of interest at the required concentration. 1 mM and 10 mM stocks dilutions of the compounds are prepared in cell culture grade DMSO, and the final concentration used in the assay is either 10 μM (for identifying molecules affecting parasite growth) or a serial dilution from 10 μM to 1 nM (for estimating the dose response and EC50 value). All compounds are plated in triplicates as biological replicates. Each 96 well plate also includes negative control (compound untreated & DMSO only treated culture) and positive control (standard anti-malarial compounds treated culture). […] After plating, the culture is incubated in standard growth condition for 60 hours, after which the cultures are processed for testing the effect of compounds on parasite growth as given below.
The inventors have standardized a SybrGreen dye based staining protocol for estimating parasite growth, which is a modification of previously published protocol [Plouffe et. al, 2008]. SybrGreen dye binds to DNA and only the DNA bound dye gives a specific fluorescence emission ([…]) when excited ([…]). Since only the parasites have DNA (as human RBCs are devoid of nucleus), the SybrGreensignal is a direct indictor of parasite growth. A standard fluorescent plate reader issued for assay read out, and the staining is done as follows. 25 μL of 10× stock containing of dye and Triton X100 (0.5%) is added to each of 200 μL culture growing in a 96 well plate and mixed well and incubated for 15 min-30 min before reading fluorescence emission using the plate reader at the appropriate wavelength.

The mark [2] stands for this setting: 10 μM compound, ring stage culture ~2% parasitemia.

`c1ccc2c(c1)nc(CN1CCOCC1)c1[nH]ccc12` [Ih, 4-((3H-pyrrolo[2,3-c]quinolin-4-yl)methyl)morpholine] showed a melting point of 148 to 150 °C. In series [1] (setting [2]), this molecule showed an inhibition at 10 µM of 86.8%. In addition, a half-maximal effect in series [1] (EC50) was put at 1.99 µM.

Consider `CCN(CC)Cc1nc2ccccc2c2ccn(S(=O)(=O)c3ccccc3)c12` [Ia, N-ethyl-N-((3-(phenylsulfonyl)-3H-pyrrolo [2,3-c]quinolin-4-yl)methyl)ethanamine], for which, in series [1] (setting [2]), the inhibition at 10 µM was 99.7%. Also, a half-maximal effect in series [1] (EC50) was put at 0.27 µM.

`CCN(CC)CCCC(C)N(C)Cc1nc2ccccc2c2cc[nH]c12` (stereo not drawn) [Im, N^4-((3H-pyrrolo [2,3-c]quinolin-4-yl)methyl)-N^1,N^1-diethyl-N^4-methylpentane-1,4-diamine] showed an inhibition at 10 µM in series [1] (setting [2]) of 98.5%. Further, a half-maximal effect in series [1] (EC50) was put at 0.17 µM.

Regarding `O=S(=O)(c1ccccc1)n1ccc2c3ccccc3nc(CN(CCO)CCO)c21` [Ic], the melting point was in the range of 98 to 99 °C. In series [1] (setting [2]), the inhibition at 10 µM stood at 93.6%. In series [1], this molecule displayed an EC50 above 10 µM.

`CCN(CC)Cc1nc2ccccc2c2cc[nH]c12` [Ib, N-((3H-pyrrolo[2,3-c]quinolin-4-yl)methyl)-N-ethylethanamine] gave an inhibition at 10 µM in series [1] (setting [2]) of 97%. The molecule also showed an EC50 in series [1] of 8.58 µM.

Molecule `O=S(=O)(c1ccccc1)n1ccc2c3ccccc3nc(CN(Cc3nc4ccccc4c4ccn(S(=O)(=O)c5ccccc5)c34)c3ccccc3)c21` [Ii, N,N-bis((3-(phenylsulfonyl)-3H-pyrrolo[2,3-c]quinolin-4-yl)methyl)aniline] had a melting point of 188 to 190 °C. Also, testing at 10 µM in series [1] (setting [2]) gave an inhibition of 88.3%. In series [1], this molecule had an EC50 above 10 µM.

In turn, `c1ccc(N(Cc2nc3ccccc3c3cc[nH]c23)Cc2nc3ccccc3c3cc[nH]c23)cc1` [Ij, N,N-bis((3H-pyrrolo[2,3-c]quinolin-4-yl)methyl)aniline] had a melting point of 242 to 244 °C. In series [1] (setting [2]), testing at 10 µM gave an inhibition of 84.1%. In series [1], this molecule registered an EC50 above 10 µM.

As to `O=S(=O)(c1ccccc1)n1ccc2c3ccccc3nc(CN3CCOCC3)c21` [Ig, 4-((3-(phenylsulfonyl)-3H-Pyrrolo[2,3-c]quinolin-4-yl)methyl)morpholine], the melting point lay in the range of 138 to 140 °C. The same molecule came in with an inhibition at 10 µM in series [1] (setting [2]) of 79.4%. Further, in series [1], the EC50 was determined as 7.86 µM.

For the molecule `Cc1nc2ccccc2c2[nH]ccc12` [In, 4-methyl-1H-pyrrolo[3,2-c]quinoline], the inhibition at 10 µM in series [1] (setting [2]) was found to be 99.1%. This molecule showed an EC50 in series [1] of 3.7 µM.

As for `O=Cc1nc2ccccc2c2ccn(S(=O)(=O)c3ccccc3)c12` [Compound of formula 3, 3-(phenylsulfonyl)-3H-Pyrrolo[2,3-c]quinoline-4-carbaldehyde], in series [1] (setting [2]), 10 µM produced 88.3% inhibition. Also, the EC50 in series [1] is above 10 µM.

Take `COc1ccc(N(C)Cc2nc3ccccc3c3cc[nH]c23)cc1` [Il, N-((3H-pyrrolo[2,3-c]quinolin-4-yl)methyl)-4-methoxy-N-methylaniline]: in series [1] (setting [2]), the inhibition at 10 µM came to 94.1%. In addition, the EC50 in series [1] worked out at 0.74 µM.

`CN(Cc1nc2ccccc2c2ccn(S(=O)(=O)c3ccccc3)c12)c1ccccc1` [Ie, N-methyl-N-((3-(phenylsulfonyl)-3H-pyrrolo[2,3-c]quinolin-4-yl)methyl)aniline] came in with a melting point of 146 to 148 °C. Besides, 10 µM produced 55.5% inhibition in series [1] (setting [2]). Further, in series [1], the EC50 was above 10 µM.

For `CN(Cc1nc2ccccc2c2cc[nH]c12)c1ccccc1` [If, N-((3H-pyrrolo[2,3-c]quinolin-4-yl)methyl)-N-methyl aniline], the melting point fell in the range of 139 to 141 °C. The molecule further showed an inhibition at 10 µM in series [1] (setting [2]) of 89.9%. Moreover, the midpoint of the response in series [1], the EC50, lay at 8.72 µM.

`OCCN(CCO)Cc1nc2ccccc2c2cc[nH]c12` [Id]: at 10 µM the inhibition in series [1] (setting [2]) was 91.5%. The response in series [1] was half-maximal at 4.48 µM (EC50).

For `COc1ccc(N(C)Cc2nc3ccccc3c3ccn(S(=O)(=O)c4ccccc4)c23)cc1` [Ik, 4-methoxy-N-methyl-N-((3-(phenylsulfonyl)-3H-pyrrolo[2,3-c]quinolin-4-yl)methyl)aniline], the melting point lay within 48 to 50 °C. Further, in series [1] (setting [2]), 10 µM produced 90.2% inhibition. The molecule also gave an EC50 in series [1] above 10 µM.

Take `O=c1c2ccccc2ncn1Cc1nc2ccccc2c2cc[nH]c12` [NCLite-M1, (3-((3H)-pyrrolo[2,3-c]quinoline-4-yl)methyl)quinazolin-4(3H)-one, reference compound]: in series [1] (setting [2]), the “Average % growth Inhibition” value turned out to be 9.18%.

The term inhibition denotes the change of the read-out against control, counted positive when it falls. Higher therefore signals a strong effect. The term EC50 denotes the concentration giving half of the maximal effect. High values mean weaker potency, low ones greater potency. By melting point is commonly meant the temperature of the solid-liquid transition.
